Assay results published in patent publication US12201632B2, “Levoketoconazole for treatment of congenital adrenal hyperplasia and primary aldosteronism” (Strongbridge Dublin Limited, priority 2018, dated 2025).
Read-outs that look alike come from different tables or passages of the source.

Experiments:
HAC15 cells = experiment: Cortisol production by HAC15 cells (immunoassay); type: cell-based, Human; conditions: HAC15, after 3 days of treatment (FIG. 1B)
Description: (§1) Human adrenocortical carcinoma HAC15 and mouse corticotroph AtT20 cells were used, purchased as a kind gift by Dr. W. Rainey, and obtained from Dr. J. Tooze (European Organization for Molecular Biology), respectively. Both cell lines were cultured in 75 cm^2 flasks at 37° C. in a humidified incubator (Greiner Bio-One, Alphen a/d Rijn, the Netherlands) at 5% CO2. Dulbecco's Modified Eagle Medium F12 containing 5% fetal calf serum was used for HAC15, whereas AtT20 cells were cultured in Dulbecco's minimal essential medium (DMEM) supplemented with 10% fetal calf serum. Both mediums were supplemented with L-glutamine (2 mmol/L) and penicillin (10^5 U/L). Short tandem repeat (str) profiling using a Powerplex Kit (Promega, Leiden, the Netherlands) of HAC15 and AtT20 gave results consistent with the ATCC database, confirming the identity of both cell lines. Medium and supplements were obtained from Invitrogen, Breda, the Netherlands. Once a week, cells were harvested with trypsin (0.05%)-EDTA (0.53 mM) and resuspended in culture medium. Levoketoconazole (COR-003) and racemic ketoconazole (both from Cortendo AB) were dissolved in absolute ethanol (EtOH), according to manufacturer's instructions, and stored at −20° C. at a stock concentration of […]. At the start of each experiment, both drugs were freshly prepared and diluted in EtOH in the correct concentrations. Synacten (synthetic ACTH, Novartis Pharma A.G.) stock concentration was stored at 4° C. and dissolved in culture medium at the day of use. The final concentrations of ACTH were chosen based on a dose-response curve in HAC15 cells and previously reported studies in the literature. For HAC15, 200,000 and 100,000 cells were plated in 0.5 ml medium in 24 well plates for experiments of 1 and 3 days, respectively. […]
Cortisol concentrations were measured in the supernatant using a chemiluminescence immunoassay system (Immulite 2000XPi; Siemens DPC Inc., Los Angeles, Calif., USA). In addition, we carried out multi-steroid analysis by liquid chromatography/mass spectrometry (LC/MS-MS) to accurately quantify androstenedione, corticosterone, cortisol, 11-deoxycortisol, DHEA, DHEAS, progesterone, 17-hydroxyprogesterone, and testosterone. […] Steroids were quantified with respect to a calibration series, with internal standards. Steroids were quantified on a Xevo TQS LC-MS/MS (Waters Chromatography).
Statistical analysis was performed using Graphpad Prism 6.0 (Graphpad Software, San Diego, CA). […] Effects of both compounds on the steroid profile were measured as absolute change compared to control and compared using the Student's t-test. When assessing differences between effects of both compounds, the percentage change was evaluated and compared in order to correct for differences in the vehicle treated control cells. […]

AtT20 cells [1] = experiment: Cell number of corticotroph pituitary AtT20 cells; type: cell-based, mouse; conditions: for IC50: AtT20, after 7 days, read-out: IC50 inhibition of cell number
Description: Human adrenocortical carcinoma HAC15 and mouse corticotroph AtT20 cells were used, purchased as a kind gift by Dr. W. Rainey, and obtained from Dr. J. Tooze (European Organization for Molecular Biology), respectively. Both cell lines were cultured in 75 cm^2 flasks at 37° C. in a humidified incubator (Greiner Bio-One, Alphen a/d Rijn, the Netherlands) at 5% CO2. Dulbecco's Modified Eagle Medium F12 containing 5% fetal calf serum was used for HAC15, whereas AtT20 cells were cultured in Dulbecco's minimal essential medium (DMEM) supplemented with 10% fetal calf serum. Both mediums were supplemented with L-glutamine (2 mmol/L) and penicillin (10^5 U/L). Short tandem repeat (str) profiling using a Powerplex Kit (Promega, Leiden, the Netherlands) of HAC15 and AtT20 gave results consistent with the ATCC database, confirming the identity of both cell lines. Medium and supplements were obtained from Invitrogen, Breda, the Netherlands. Once a week, cells were harvested with trypsin (0.05%)-EDTA (0.53 mM) and resuspended in culture medium. Levoketoconazole (COR-003) and racemic ketoconazole (both from Cortendo AB) were dissolved in absolute ethanol (EtOH), according to manufacturer's instructions, and stored at −20° C. at a stock concentration of 10^−2 μM. At the start of each experiment, both drugs were freshly prepared and diluted in EtOH in the correct concentrations. Synacten (synthetic ACTH, Novartis Pharma A.G.) stock concentration was stored at 4° C. and dissolved in culture medium at the day of use. The final concentrations of ACTH were chosen based on a dose-response curve in HAC15 cells and previously reported studies in the literature. For HAC15, 200,000 and 100,000 cells were plated in 0.5 ml medium in 24 well plates for experiments of 1 and 3 days, respectively. For AtT20, cell amounts were 100,000 and 30,000. One day after seeding the HAC15 cells, the medium was refreshed and cells were treated 1 or 3 days in quadruplicate with levoketoconazole or racemic ketoconazole (0.05-5 μM), with or without 10 nM ACTH. To study effects of both compounds on pituitary AtT20 cells, concentrations of 0.1 to 10 μM of both drugs were used. Controls were vehicle treated. […] All cell culture experiments were carried out at least twice.
As a measure of cell number, DNA concentrations were determined using the bisbenzimide fluorescent dye (Hoechst 33258, Sigma Aldrich), as previously described.
Statistical analysis was performed using Graphpad Prism 6.0 (Graphpad Software, San Diego, CA). Non-linear regression curve fitting program was used to calculate the half maximal inhibitory concentrations (IC50) on cortisol production. Effects of both compounds on the steroid profile were measured as absolute change compared to control and compared using the Student's t-test. When assessing differences between effects of both compounds, the percentage change was evaluated and compared in order to correct for differences in the vehicle treated control cells. Values of P<0.05 were considered statistically significant and data are presented as mean SEM.

AtT20 cells [2] = experiment: ACTH secretion corrected for cell amount in AtT20 cells; type: cell-based, mouse
Description: as §1
At the end of the AtT20 and primary pituitary adenoma culture experiments, medium was collected and supplemented with 1% of the protease inhibitor Trasylol to prevent degradation of ACTH. ACTH was measured using a commercially available, nonisotopic automatic chemiluminescence system (DPC Immulite).

[3] = AtT20, after 3 and 7 days of treatment

IC50 (HAC15 cells; Homo sapiens, 72 h) | IC50 (AtT20 cells [1]; Mus musculus, 168 h) | SMILES | effect on cell number (AtT20 cells [1]; [3]) | effect on cell number (AtT20 cells [1]; AtT20, after 24 h of treatment) | inhibition at 10 µM (AtT20 cells [2]; Mus musculus, 168 h, AtT20, 7 days of treatment with 10 μM, corrected for cell amount, read-out: Maximal inhibition of ACTH secretion) | IC50 (HAC15 cells) | IC50 (AtT20 cells [1]) | Maximal inhibition of ACTH secretion (AtT20 cells [2]; AtT20, 7 days of treatment with 10 μM, corrected for cell amount) | ACTH secretion corrected for cell amount (AtT20 cells [2]; AtT20, after 3 days of treatment)
611 nM | 5810 nM | CC(=O)N1CCN(c2ccc(OCC3COC(Cn4ccnc4)(c4ccc(Cl)cc4Cl)O3)cc2)CC1 (racemic) [racemic ketoconazole, Ketoconazole] | inhibited cell number | no effect | 34% | – | – | – | –
– | – | CC(=O)N1CCN(c2ccc(OC[C@@H]3CO[C@@](Cn4ccnc4)(c4ccc(Cl)cc4Cl)O3)cc2)CC1 (relative stereo) [levoketoconazole, 2S,4R cis-1-acetyl-4-[4-[[2-(2,4-dichlorophenyl)-2-(1H-imidazol-1-ylmethyl)-1,3-dioxolan-4-yl]methoxyl]phenyl]piperazine] | inhibited cell number | no effect | – | 300 nM | 1050 nM | 38% | showed inhibition of ACTH secretion
